Measurements as given in PMC3069143 (Analytical chemistry, 2011).
Where two headings read alike, the source gives them in different places.

Tests used:
Calf thymus ds-DNA [1] = assay: ECL genotoxicity array, multi-enzyme; settings: for ECL turnover rate R (in words): arylamines, HLE or MLE, AcCoA + NADPH
[2] = tested on: Salmonella typhimurium TA1538; settings: ref Table S2 (SI); cited from earlier work
[3] = tested on: Salmonella typhimurium TA1535; settings: ref Table S2 (SI); cited from earlier work
Calf thymus ds-DNA [4] = tested on: Calf thymus ds-DNA
human hepatic cell lines = settings: ref Table S2 (SI); cited from earlier work
rodent [5] = settings: cited from earlier work; for LD50 (in words): rat for styrene and NPYR, mouse for arylamines
rodent [6] = settings: cited from earlier work
[7] = 1 min enzyme reaction, RLE or HLE

Nc1ccc2ccccc2c1 [2-NA, 2-naphthylamine]
ECL turnover rate R (in words) (Calf thymus ds-DNA [1]): did not generate large R

Nc1ccc(-c2ccccc2)cc1 [4-ABP, 4-aminobiphenyl]
ECL turnover rate R (in words) (Calf thymus ds-DNA [1]): largest

CN(CCCC(=O)c1cccnc1)N=O [NNK, 4-(methylnitrosamino)-1-(3-pyridyl)-1-butanone]
Ames mutagenicity, TA1538 [2]: not mutagenic
Ames mutagenicity, TA1535 [3]: only slightly mutagenic
ECL produced relative to styrene (Calf thymus ds-DNA [4]; 0.2 mM substrate, either RLE or HLE, NADPH regenerating system): 2–3 times
substrate concentration giving measurable ECL increase (Calf thymus ds-DNA [4]; [7]): 0.2 mM
Comet assay OTM/conc. (human hepatic cell lines): small

Cc1ccc(N)cc1N [2,4-DAT, 2,4-diaminotoluene]
LD50 (in words) (rodent [5]): small
R relative to 2,6-DAT (Calf thymus ds-DNA [1]; isomer pair 2,4-DAT vs 2,6-DAT): 3 fold

C=Cc1ccccc1 [styrene]
LD50 (in words) (rodent [5]): small
ECL turnover rate R (in words) (Calf thymus ds-DNA [4]): small
substrate concentration giving measurable ECL increase (Calf thymus ds-DNA [4]): 1 mM
Comet assay OTM/conc. (human hepatic cell lines): small

O=NN1CCCC1 [NPYR, N-nitrosopyrrolidine]
Ames mutagenicity, TA1538 [2]: not mutagenic
LD50 (in words) (rodent [5]): small
Ames mutagenicity, TA1535 [3]: only slightly mutagenic
substrate concentration giving measurable ECL increase (Calf thymus ds-DNA [4]; [7]): 0.2 mM

CC(=O)Nc1ccc2c(c1)Cc1ccccc1-2 [2-AAF, N-acetyl-2-aminofluorene]
Comet assay OTM/conc. (human hepatic cell lines): large

Cc1c(N)cccc1N [2,6-DAT, 2,6-diaminotoluene]
ECL turnover rate R (in words) (Calf thymus ds-DNA [1]): small but significant
induction of liver tumors (rodent [6]; rat models): fails to induce liver tumors

Cc1ccccc1 [toluene]
LD50 (rodent [5]; rodent, single dose): 2250 mg/kg body weight
TD50 (rodent [6]; liver TD50, rodent): 5390 mg/kg body weight per day
